Experimental data: US11325889B2, “Substituted 3-((3-aminophenyl)amino)piperidine-2,6-dione compounds, compositions thereof, and methods of treatment therewith” (Celgene Corporation, priority 2018, dated 2022)
Where two headings read alike, the source gives them in different places.

Target: T1, AR protein in VCaP cells (Homo sapiens, UniProt P10275)
T1 construct: endogenous in cells; host or cells: VCaP cells
T1 sequence (P10275 1-920): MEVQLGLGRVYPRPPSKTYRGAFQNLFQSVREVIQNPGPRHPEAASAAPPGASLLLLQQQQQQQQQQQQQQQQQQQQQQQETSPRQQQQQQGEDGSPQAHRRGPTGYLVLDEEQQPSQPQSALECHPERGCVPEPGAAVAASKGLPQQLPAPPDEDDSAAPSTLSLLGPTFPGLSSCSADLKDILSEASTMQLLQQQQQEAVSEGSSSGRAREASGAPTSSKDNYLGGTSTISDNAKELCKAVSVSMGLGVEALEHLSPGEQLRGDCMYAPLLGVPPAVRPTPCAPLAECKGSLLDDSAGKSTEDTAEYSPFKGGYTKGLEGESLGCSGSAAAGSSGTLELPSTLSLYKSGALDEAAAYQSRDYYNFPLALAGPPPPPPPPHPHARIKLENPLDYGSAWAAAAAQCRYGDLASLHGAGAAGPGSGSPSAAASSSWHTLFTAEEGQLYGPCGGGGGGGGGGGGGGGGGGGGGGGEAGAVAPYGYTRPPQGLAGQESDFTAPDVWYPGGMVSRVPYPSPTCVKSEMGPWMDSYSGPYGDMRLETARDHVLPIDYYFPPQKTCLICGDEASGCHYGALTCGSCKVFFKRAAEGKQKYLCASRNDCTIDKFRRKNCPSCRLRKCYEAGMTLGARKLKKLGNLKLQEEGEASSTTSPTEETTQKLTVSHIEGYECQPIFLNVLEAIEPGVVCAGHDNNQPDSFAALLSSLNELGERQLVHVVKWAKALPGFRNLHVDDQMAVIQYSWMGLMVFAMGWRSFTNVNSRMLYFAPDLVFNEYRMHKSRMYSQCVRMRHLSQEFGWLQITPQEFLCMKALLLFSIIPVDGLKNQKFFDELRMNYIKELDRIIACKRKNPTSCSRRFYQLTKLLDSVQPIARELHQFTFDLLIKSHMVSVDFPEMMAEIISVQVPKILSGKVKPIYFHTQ
Assay: VCAP AR Degradation Assay (AR ELISA, 24 h)
Format: cell-based
Conditions: for Y (lowest measured AR level normalized to DMSO control): AR degradation efficiency; for DC50: concentration of compound when AR level = 50% of DMSO control
Experimental: VCAP AR Degradation Assay.
Test compounds were pre-dispensed into a Corning CellBind 96-well clear bottom plate (Cat #3300) using an acoustic dispenser to make a 10-point concentration series at 1:3 dilution for each compound. The final top concentration of each compound was […]. DMSO at a final concentration of 0.1% was used as a control. VCaP cells cultured in DMEM with 8% fetal bovine serum (FBS) were seeded at 50K cells per well in a 200 μL volume into the compound plate and incubated at 37° C. in a CO2 incubator for 24 h. The medium was carefully removed from the cells and the plate was placed on ice. One hundred […] of ice-cold 1× cell lysis buffer from Cell Signaling Technologies (Cat #9803) was added to each well of the cells and the plate was incubated at 4° C. on a shaker for 1 h. Fifteen […] of cell lysate was used for AR ELISA detection using a PathScan Total Sandwich AR ELISA kit (Cell Signaling Technology, Cat #12580). AR levels in compound-treated wells were normalized to that of DMSO control and expressed as percent of control (PoC) (y). A Four Parameter Logistic Model (Sigmoidal Dose-Response Model) was used to determine the compound's DC50, and EC50, using the following equation: y=(A+((B−A)/(1+((C/x)^D)))) • A=YMin (lowest AR level normalized to DMSO control in response to compound • treatment, as determined by curve fit) • B=YMax (maximum AR level as determined by curve fit) • C=EC50 • D=Hill Slope • x=compound concentration • EC50=the concentration of compound when y=(YMax−YMin)/2 • DC50=the concentration of the compound when y=50% of DMSO control (50% AR degradation) • y=AR protein level normalized to DMSO control
The lowest measured AR level normalized to DMSO control in response to compound treatment, termed Y value, was used to characterize the compound-mediated AR degradation efficiency.

| Structure (SMILES) | Y (lowest measured AR level normalized to DMSO control) | DC50 (read-out: DC50) [nM] | DC50 [nM] |
| --- | --- | --- | --- |
| CCc1cc(N2C(=S)N(c3cnc(C#N)c(C(F)(F)F)c3)C(=O)C2(C)C)ccc1OC1C[C@H]2CC[C@@H](C1)N2CC(=O)Nc1cccc(NC2CCC(=O)NC2=O)c1 (stereo partly drawn) [Cmpd 87, 2-((1R,3s,5S)-3-(4-(3-(6-cyano-5-(trifluoromethyl)pyridin-3-yl)-5,5-dimethyl-4-oxo-2-thioxoimidazolidin-1-yl)-2-ethylphenoxy)-8-azabicyclo[3.2.1]octan-8-yl)-N-(3-(2,6-dioxopiperidin-3-ylamino)phenyl)acetamide] | *** (35%<Y<50%) | 500 to 1000 |  |
| CCc1cc(N2C(=S)N(c3cnc(C#N)c(C(F)(F)F)c3)C(=O)C2(C)C)ccc1OCC[C@H]1C[C@H]2CC[C@@H](C1)N2CC(=O)Nc1cc(Cl)cc(NC2CCC(=O)NC2=O)c1 (stereo partly drawn) [Cmpd 63, N-(3-chloro-5-(2,6-dioxopiperidin-3-ylamino)phenyl)-2-((1R,3r,5S)-3-(2-(4-(3-(6-cyano-5-(trifluoromethyl)pyridin-3-yl)-5,5-dimethyl-4-oxo-2-thioxoimidazolidin-1-yl)-2-ethylphenoxy)ethyl)-8-azabicyclo[3.2.1]octan-8-yl)acetamide] | ** (25%<Y<=35%) |  | < 100 |
| CCc1cc(N2C(=S)N(c3cnc(C#N)c(C(F)(F)F)c3)C(=O)C2(C)C)ccc1OCC[C@H]1C[C@H]2CC[C@@H](C1)N2CC(=O)Nc1cccc(NC2CCC(=O)NC2=O)c1 (stereo partly drawn) [Cmpd 65, 2-((1R,3r,5S)-3-(2-(4-(3-(6-cyano-5-(trifluoromethyl)pyridin-3-yl)-5,5-dimethyl-4-oxo-2-thioxoimidazolidin-1-yl)-2-ethylphenoxy)ethyl)-8-azabicyclo[3.2.1]octan-8-yl)-N-(3-(2,6-dioxopiperidin-3-ylamino)phenyl)acetamide] | * (0<Y<=25%) |  | < 100 |
| CCc1cc(N2C(=S)N(c3ccc(C#N)c(C(F)(F)F)c3)C(=O)C2(C)C)cnc1O[C@H]1C[C@@H](C)N(CC(=O)Nc2cccc(NC3CCC(=O)NC3=O)c2)[C@@H](C)C1 (stereo partly drawn) [Cmpd 95, 2-((2R,4r,6S)-4-((5-(3-(4-cyano-3-(trifluoromethyl)phenyl)-5,5-dimethyl-4-oxo-2-thioxoimidazolidin-1-yl)-3-ethylpyridin-2-yl)oxy)-2,6-dimethylpiperidin-1-yl)-N-(3-((2,6-dioxopiperidin-3-yl)amino)phenyl)acetamide] | ** (25%<Y<=35%) | 500 to 1000 |  |
| CCc1cc(N2C(=S)N(c3ccc(C#N)c(C(F)(F)F)c3)C(=O)C23CCC3)ccc1OCCC1CCN(CC(=O)Nc2cc(NC3CCC(=O)NC3=O)ccc2F)CC1 (centres unmarked) [Cmpd 57, 2-(4-(2-(4-(7-(4-cyano-3-(trifluoromethyl)phenyl)-8-oxo-6-thioxo-5,7-diazaspiro[3.4]octan-5-yl)-2-ethylphenoxy)ethyl)piperidin-1-yl)-N-(5-(2,6-dioxopiperidin-3-ylamino)-2-fluorophenyl)acetamide] | * (0<Y<=25%) | 100 to 500 |  |
| CCc1cc(N2C(=S)N(c3ccc(C#N)c(C(F)(F)F)c3)C(=O)C23CCC3)ccc1OCCC1CCN(CC(=O)Nc2cc(Cl)cc(NC3CCC(=O)NC3=O)c2)CC1 (centres unmarked) [Cmpd 28, N-(3-chloro-5-(2,6-dioxopiperidin-3-ylamino)phenyl)-2-(4-(2-(4-(7-(4-cyano-3-(trifluoromethyl)phenyl)-8-oxo-6-thioxo-5,7-diazaspiro[3.4]octan-5-yl)-2-ethylphenoxy)ethyl)piperidin-1-yl)acetamide] | * (0<Y<=25%) | 100 to 500 |  |
| CCc1cc(N2C(=S)N(c3cnc(C#N)c(C(F)(F)F)c3)C(=O)C2(C)C)ccc1OCCC1CCN(CC(=O)Nc2cc(F)cc(NC3CCC(=O)NC3=O)c2)CC1 (centres unmarked) [Cmpd 16, 2-(4-(2-(4-(3-(6-cyano-5-(trifluoromethyl)pyridin-3-yl)-5,5-dimethyl-4-oxo-2-thioxoimidazolidin-1-yl)-2-ethylphenoxy)ethyl)piperidin-1-yl)-N-(3-(2,6-dioxopiperidin-3-ylamino)-5-fluorophenyl)acetamide] | * (0<Y<=25%) | < 100 |  |
| CCc1cc(N2C(=S)N(c3cnc(C#N)c(C(F)(F)F)c3)C(=O)C2(C)C)ccc1OCC[C@@H]1CCN(CC(=O)Nc2cccc(NC3CCC(=O)NC3=O)c2)[C@H](C)C1 (stereo partly drawn) [Cmpd 78, 2-((2R,4R)-4-(2-(4-(3-(6-cyano-5-(trifluoromethyl)pyridin-3-yl)-5,5-dimethyl-4-oxo-2-thioxoimidazolidin-1-yl)-2-ethylphenoxy)ethyl)-2-methylpiperidin-1-yl)-N-(3-(2,6-dioxopiperidin-3-ylamino)phenyl)acetamide] | * (0<Y<=25%) | < 100 |  |
| CCc1cc(N2C(=S)N(c3ccc(C#N)c(C(F)(F)F)c3)C(=O)C2(C)C)ccc1OCCC1(F)CCN(CC(=O)Nc2cccc(NC3CCC(=O)NC3=O)c2)CC1 (centres unmarked) [Cmpd 88, 2-(4-(2-(4-(3-(4-cyano-3-(trifluoromethyl)phenyl)-5,5-dimethyl-4-oxo-2-thioxoimidazolidin-1-yl)-2-ethylphenoxy)ethyl)-4-fluoropiperidin-1-yl)-N-(3-(2,6-dioxopiperidin-3-ylamino)phenyl)acetamide] | * (0<Y<=25%) | < 100 |  |
| CCc1cc(N2C(=S)N(c3cnc(C#N)c(C(F)(F)F)c3)C(=O)C2(C)C)ccc1OCCC1CCN(CC(=O)Nc2cc(Cl)cc(NC3CCC(=O)NC3=O)c2)CC1 (centres unmarked) [Cmpd 13, N-(3-chloro-5-(2,6-dioxopiperidin-3-ylamino)phenyl)-2-(4-(2-(4-(3-(6-cyano-5-(trifluoromethyl)pyridin-3-yl)-5,5-dimethyl-4-oxo-2-thioxoimidazolidin-1-yl)-2-ethylphenoxy)ethyl)piperidin-1-yl)acetamide] | * (0<Y<=25%) | < 100 |  |
| CCc1cc(N2C(=S)N(c3cnc(C#N)c(C(F)(F)F)c3)C(=O)C2(C)C)ccc1OCC[C@@H]1C[C@H]2CC[C@@H](C1)N2CC(=O)Nc1cccc(NC2CCC(=O)NC2=O)c1 (stereo partly drawn) [Cmpd 66, 2-((1R,3s,5S)-3-(2-(4-(3-(6-cyano-5-(trifluoromethyl)pyridin-3-yl)-5,5-dimethyl-4-oxo-2-thioxoimidazolidin-1-yl)-2-ethylphenoxy)ethyl)-8-azabicyclo[3.2.1]octan-8-yl)-N-(3-(2,6-dioxopiperidin-3-ylamino)phenyl)acetamide] | * (0<Y<=25%) |  | < 100 |
| CCc1cc(N2C(=S)N(c3cnc(C#N)c(C(F)(F)F)c3)C(=O)C23CCC3)ccc1OCCC1CCN(CC(=O)Nc2cc(NC3CCC(=O)NC3=O)ccc2F)CC1 (centres unmarked) [Cmpd 56, 2-(4-(2-(4-(7-(6-cyano-5-(trifluoromethyl)pyridin-3-yl)-8-oxo-6-thioxo-5,7-diazaspiro[3.4]octan-5-yl)-2-ethylphenoxy)ethyl)piperidin-1-yl)-N-(5-(2,6-dioxopiperidin-3-ylamino)-2-fluorophenyl)acetamide] | * (0<Y<=25%) | 100 to 500 |  |
| CC1(C)C(=O)N(c2cnc(C#N)c(C(F)(F)F)c2)C(=S)N1c1ccc(OCC2CCN(CC(=O)Nc3cccc(NC4CCC(=O)NC4=O)c3)CC2)cc1 (centres unmarked) [Cmpd 6, 2-(4-((4-(3-(6-cyano-5-(trifluoromethyl)pyridin-3-yl)-5,5-dimethyl-4-oxo-2-thioxoimidazolidin-1-yl)phenoxy)methyl)piperidin-1-yl)-N-(3-(2,6-dioxopiperidin-3-ylamino)phenyl)acetamide] | ** (25%<Y<=35%) | 100 to 500 |  |
